System: A549 cells
Assay: A549 microarray comparing macrolides with arachidonic acid pathway inhibitors, with IL-1β stimulation (Appendix C, Tables 6-9), and correlation analysis
Assay type: cell-based
Excerpt: One inhibitor, triacsin C, acts on AA biosynthesis by inhibiting arachidonyl CoA synthetases, blocking the incorporation of free AA into phospholipids. Triacsin C is reasonably specific for AA compared to other fatty acids. However, triacsin C structurally resembles AA so it also may interfere with other steps in the AA pathway. Indomethacin is an inhibitor of COX1 and COX2 enzyme activities and therefore specifically blocks metabolism of AA into prostaglandins. […] It inhibits transcription of PLA2, and transcriptionally and post-transcriptionally regulates COX1 and COX2 activities. Dexamethasone has additional effects unrelated to AA through binding with the glucocorticoid receptor to glucocortcoid response elements.
A549 cells were pre-incubated overnight (17 hours) with macrolides (10 μM FMA-9045, 50 μM clarithromycin, 50 μM roxithromycin, 50 μM josamycin) and 15 μM triacsin C, and pre-incubated 2 hours with 100 nM indomethacin and 100 nM dexamethasone. All cells then were stimulated for 4 hours with IL-1β, because the activation of PLA2 and downstream signaling events generally requires an inflammatory stimulus. The various treatment conditions are shown below in Table 4. Following macrolide and inhibitor pre-treatment and IL-1 stimulation, the cells were lysed, total RNA was collected, and the poly-A+ mRNA fraction was purified. The resulting microarray data (Appendix C) were analyzed using the methods described in the Examples above.
The tables in Appendix C represent the effects of the arachidonic acid pathway inhibitors (“AA pathway inhibitors”) and the effects of the macrolides (“IL1+macrolide effects”). […] In both tables in Appendix C, the genes that meet this criterion (≧1.3 min fold change) are indicated in bold.
Quantitative analysis was done to determine how well the responses to the different AA pathway inhibitors correlated. The correlation values were assigned a p-value to provide statistical confidence to the correlation value. Correlation between experiments, across all spots showing good detection, was assessed by cosine vector angle to generate the data shown in Tables 7-9. A correlation coefficient close to one indicates strong correlation, whereas a value near zero indicates no correlation. P-values for each correlation coefficient were estimated based on a Fisher permutation test. In this test, each spot's expression ratios were randomly re-ordered across experiments and the degree of correlation between experiments was then reassessed. This was done repeatedly.

[1] = A549 cells, +IL1b +/- inhibitor

Compound: COc1ccc2c(c1)c(CC(=O)O)c(C)n2C(=O)c1ccc(Cl)cc1 [indomethacin]
- Number of differentially expressed genes also differential in response to triacsin C (A549 + IL-1β, of the genes regulated by the labelled drug): 36
- Total # Differential Genes (95% confidence) (A549, IL1 vs IL1 + drug, threshold 1.3, macrolides 50 μM (FMA 10 μM), triacsin C 15 μM, indomethacin and dexamethasone 100 nM): 37
- min fold change, SpotID 46796 STC1 (stanniocalcin 1) [1]: 1.34
- min fold change, SpotID 46950 SERPINA3 (serine (or cysteine) proteinase inhibitor, clade A, member 3) [1]: 1.28
- min fold change, SpotID 46985 RIPK2 (RIP2, RICK; receptor-interacting serine-threonine kinase 2) [1]: 1.85
- min fold change, SpotID 47155 TNFAIP6 (tumor necrosis factor, alpha-induced protein 6) [1]: 1.17
- min fold change, SpotID 47166 SERPINA6 (serine (or cysteine) proteinase inhibitor, clade A, member 6) [1]: 1.05
- min fold change, SpotID 47193 STAT3 (signal transducer and activator of transcription 3) [1]: 1.25
- min fold change, SpotID 47332 SERPINB3 (serine (or cysteine) proteinase inhibitor, clade B (ovalbumin), member 3) [1]: 1.25
- min fold change, SpotID 47444 TKT (transketolase (Wernicke-Korsakoff syndrome)) [1]: 1.00
- min fold change, SpotID 47569 STAT3 (signal transducer and activator of transcription 3) [1]: 1.69
- min fold change, SpotID 47697 TNFRSF6B (DcR3; tumor necrosis factor receptor superfamily, member 6b, decoy) [1]: 1.52
- min fold change, SpotID 47698 PTPRJ (protein tyrosine phosphatase, receptor type, J) [1]: 1.31
- min fold change, SpotID 47987 THBS1 (thrombospondin 1) [1]: 1.32
- min fold change, SpotID 48050 RPS6KA2 (ribosomal protein S6 kinase, 90 kD, polypeptide 2) [1]: 1.00
- min fold change, SpotID 48234 PTPRZ1 (PTP zeta; protein tyrosine phosphatase, receptor-type, Z polypeptide 1) [1]: 1.48
- min fold change, SpotID 48239 TLN1 (talin 1) [1]: 1.51
- min fold change, SpotID 48288 TRAF5 (TNF receptor-associated factor 5) [1]: 1.40
- min fold change, SpotID 48359 RIPK1 (receptor (TNFRSF)-interacting serine-threonine kinase 1) [1]: 1.00
- min fold change, SpotID 48392 RIPK1 (receptor (TNFRSF)-interacting serine-threonine kinase 1) [1]: 1.00
- min fold change, SpotID 48395 TNFRSF7 (CD27; tumor necrosis factor receptor superfamily, member 7) [1]: 1.55
- min fold change, SpotID 48485 UCP1 (uncoupling protein 1 (mitochondrial, proton carrier)) [1]: 1.32
- min fold change, SpotID 48500 RPL13A (ribosomal protein L13a) [1]: 1.06
- min fold change, SpotID 48594 RPS6KA2 (ribosomal protein S6 kinase, 90 kD, polypeptide 2) [1]: 1.03
- min fold change, SpotID 48603 TEAD4 (TEA domain family member 4) [1]: 1.72
- min fold change, SpotID 49330 TNFRSF7 (CD27; tumor necrosis factor receptor superfamily, member 7) [1]: 1.44
- min fold change, SpotID 49899 WWOX (WW domain containing oxidoreductase) [1]: 1.00
- min fold change, SpotID 49901 TROAP (trophinin associated protein (tastin)) [1]: 1.01
- min fold change, SpotID 50379 TNFRSF6 (FAS; tumor necrosis factor receptor superfamily, member 6) [1]: 1.38
- min fold change, SpotID 50428 RPLP0 (ribosomal protein, large, P0) [1]: 1.00
- min fold change, SpotID 50491 TNFRSF6B (DcR3; tumor necrosis factor receptor superfamily, member 6b, decoy) [1]: 1.17
- wtd means, SpotID 46796 STC1 (stanniocalcin 1) [1]: 1.47
- wtd means, SpotID 46950 SERPINA3 (serine (or cysteine) proteinase inhibitor, clade A, member 3) [1]: 1.41
- wtd means, SpotID 46985 RIPK2 (RIP2, RICK; receptor-interacting serine-threonine kinase 2) [1]: 2.23
- wtd means, SpotID 47155 TNFAIP6 (tumor necrosis factor, alpha-induced protein 6) [1]: 1.23
- wtd means, SpotID 47166 SERPINA6 (serine (or cysteine) proteinase inhibitor, clade A, member 6) [1]: 1.66
- wtd means, SpotID 47193 STAT3 (signal transducer and activator of transcription 3) [1]: 1.64
- wtd means, SpotID 47332 SERPINB3 (serine (or cysteine) proteinase inhibitor, clade B (ovalbumin), member 3) [1]: 1.33
- wtd means, SpotID 47444 TKT (transketolase (Wernicke-Korsakoff syndrome)) [1]: 0.82
- wtd means, SpotID 47569 STAT3 (signal transducer and activator of transcription 3) [1]: 2.00
- wtd means, SpotID 47697 TNFRSF6B (DcR3; tumor necrosis factor receptor superfamily, member 6b, decoy) [1]: 1.84
- wtd means, SpotID 47698 PTPRJ (protein tyrosine phosphatase, receptor type, J) [1]: 1.38
- wtd means, SpotID 47987 THBS1 (thrombospondin 1) [1]: 0.68
- wtd means, SpotID 48234 PTPRZ1 (PTP zeta; protein tyrosine phosphatase, receptor-type, Z polypeptide 1) [1]: 1.77
- wtd means, SpotID 48239 TLN1 (talin 1) [1]: 1.57
- wtd means, SpotID 48288 TRAF5 (TNF receptor-associated factor 5) [1]: 1.96
- wtd means, SpotID 48359 RIPK1 (receptor (TNFRSF)-interacting serine-threonine kinase 1) [1]: 1.34
- wtd means, SpotID 48392 RIPK1 (receptor (TNFRSF)-interacting serine-threonine kinase 1) [1]: 1.35
- wtd means, SpotID 48395 TNFRSF7 (CD27; tumor necrosis factor receptor superfamily, member 7) [1]: 1.76
- wtd means, SpotID 48485 UCP1 (uncoupling protein 1 (mitochondrial, proton carrier)) [1]: 1.70
- wtd means, SpotID 48500 RPL13A (ribosomal protein L13a) [1]: 1.23
- wtd means, SpotID 48603 TEAD4 (TEA domain family member 4) [1]: 2.19
- wtd means, SpotID 49330 TNFRSF7 (CD27; tumor necrosis factor receptor superfamily, member 7) [1]: 1.90
- wtd means, SpotID 49899 WWOX (WW domain containing oxidoreductase) [1]: 1.07
- wtd means, SpotID 49901 TROAP (trophinin associated protein (tastin)) [1]: 0.93
- wtd means, SpotID 50379 TNFRSF6 (FAS; tumor necrosis factor receptor superfamily, member 6) [1]: 1.57
- wtd means, SpotID 50428 RPLP0 (ribosomal protein, large, P0) [1]: 0.77
- wtd means, SpotID 50491 TNFRSF6B (DcR3; tumor necrosis factor receptor superfamily, member 6b, decoy) [1]: 1.60
- FADS1 expression (A549 cells, microarray): not
